Values quoted from earlier work as cited in patent US20170312324A1, “USE OF MAITAKE AND MAITAKE GRIFOLAN D COMPONENT IN PREPARATION OF ANTIDEPRESSANT DRUG” (Yunnan University, priority 2014, published 2017).

Test system: tumor
Settings: comparison experiment with mitomycin

For `CO[C@@]12[C@H](COC(N)=O)C3=C(C(=O)C(C)=C(N)C3=O)N1C[C@@H]1N[C@@H]12` [mitomycin], the “anti-tumor rate / tumor inhibition rate” value is listed as 45%.
